Key:
[1] = target: wild-type human cardiac sodium channel, hNav1.5 (late INa) (Homo sapiens, UniProt Q14524); assay: Late INa screening assay (QPatch whole cell patch clamp); format: cell-based; conditions: percent block of late INa, compound at 1 μM, 10 μM Tefluthrin, HEK293 hNav1.5; read-out: Late INa 1 μM
Description: The late sodium current (Late INa) and peak sodium current (Peak INa) assays are performed on an automated electrophysiology platform, QPatch 16× (Sophion Bioscience, Copenhagen, Denmark), which uses the whole cell patch clamp technique to measure currents through the cell membrane of up to 16 cells at a time. The assay uses an HEK293 (human embryonic kidney) cell line heterologously expressing the wild-type human cardiac sodium channel, hNav1.5, purchased from Millipore (Billerica, Mass.). No beta subunits were coexpressed with the Na channel alpha subunit. Cells are maintained with standard tissue culture procedures and stable channel expression is maintained with 400 μg/mL Geneticin in the culture medium. […] Experiments are carried out at 23-25° C. For both the Late INa and Peak INa assays, series resistance compensation is set to 100% and series resistance and whole-cell compensation are performed automatically. Currents are digitized at 25 kHz and low-pass filtered at 12 kHz and 10 kHz for the late and peak INa assays, respectively. Currents through open sodium channels are automatically recorded and stored in the Sophion Bioscience Oracle database (Sophion Bioscience, Copehagen, Denmark). Analysis is performed using QPatch Assay and database software and data are compiled in Excel. Compound stocks are routinely made by the Gilead Sample Bank in plastic vials to 10 mM in dimethyl sulfoxide (DMSO). In some cases, when compounds are not soluble in DMSO, they are made in 100% ethanol. Stocks are sonicated as necessary. […] The intracellular solution used to perfuse the inside of the cells for both the Late INa and Peak INa assays contains: 120 mM CsF, 20 mM CsCl, 5 mM EGTA, 5 mM HEPES and pH adjusted to 7.4 with CsOH. Compounds are diluted in extracellular solution to 1 μM in glass vials and then transferred to glass well plates before robotic addition to the cells. […] For the Late INa assay, sodium channels are activated every 10 seconds (0.1 Hz) by depolarizing the cell membrane to −20 mV for 250 milliseconds (ms) from a holding potential of −120 mV. In response to a −20 mV voltage step, typical hNav1.5 sodium currents activate rapidly to a peak negative current and then inactivate nearly completely within 3-4 ms. All compounds were tested to determine their activity in blocking the late sodium current. Late INa was generated by adding 10 μM Tefluthrin (pyrethroid) to the extracellular solution while recording Na currents. To confirm the block of late INa observed using the automated screening method, a second late INa enhancer (ATX-II) and the manual patch clamp method were used. ATX-II and tefluthrin occupy distinct, non-overlapping binding sites and modify Na^+ channel function differently to increase late INa. […] For the purposes of the screening, late INa is defined as the mean current between 225 ms and 250 ms after stepping to −20 mV to activate Na channels. […] Results are reported as percent block of late INa.

[2] = Microsomal stability assay, human; format: in vitro ADME; conditions: metabolic stability, human liver microsomes 0.5 mg/mL, substrate 3 uM
Description: (§1) The micorsomal stability assay is generally performed as follows. Format: 15 compounds (and 1 control verapamil) in 3 different species in duplicate sets Substrate: 3 uM Protein concentration: 0.5 mg/mL (for dog, rat, and human liver microsomes) Cofactor: 1×NADPH-Regenerating system Time-points: 2, 12, 25, 45, and 65 minutes [table] Sample preparation: 25 uL at each timepoint is added to plate with 225 uL quenching solution (50% MeOH, 25% ACN, 25% H2O, and 50 nM […]). After plates are vortexed, centrifuge for 30 minutes. Microsomal solutions: take 400 uL of 20 mg/mL microsomes and add to 13,680 uL 100 mM KPO4 buffer. Using an 8-channel, add 650 uL of this solution to the designated two columns on a short plate. The order should be dog microsomes in columns 1 and 2, rat microsomes in columns 3 and 4, and human microsomes in columns 5 and 6. Keep on ice before use. Place this plate in incubator 1 on the TECAN countertop.

[3] = Microsomal stability assay, dog; format: in vitro ADME; conditions: metabolic stability, dog liver microsomes 0.5 mg/mL, substrate 3 uM
Description: as §1

[4] = Microsomal stability assay, rat; format: in vitro ADME; conditions: metabolic stability, rat liver microsomes 0.5 mg/mL, substrate 3 uM
Description: as §1

Chain of wild-type human cardiac sodium channel, hNav1.5 (late INa) (Q14524 whole entry): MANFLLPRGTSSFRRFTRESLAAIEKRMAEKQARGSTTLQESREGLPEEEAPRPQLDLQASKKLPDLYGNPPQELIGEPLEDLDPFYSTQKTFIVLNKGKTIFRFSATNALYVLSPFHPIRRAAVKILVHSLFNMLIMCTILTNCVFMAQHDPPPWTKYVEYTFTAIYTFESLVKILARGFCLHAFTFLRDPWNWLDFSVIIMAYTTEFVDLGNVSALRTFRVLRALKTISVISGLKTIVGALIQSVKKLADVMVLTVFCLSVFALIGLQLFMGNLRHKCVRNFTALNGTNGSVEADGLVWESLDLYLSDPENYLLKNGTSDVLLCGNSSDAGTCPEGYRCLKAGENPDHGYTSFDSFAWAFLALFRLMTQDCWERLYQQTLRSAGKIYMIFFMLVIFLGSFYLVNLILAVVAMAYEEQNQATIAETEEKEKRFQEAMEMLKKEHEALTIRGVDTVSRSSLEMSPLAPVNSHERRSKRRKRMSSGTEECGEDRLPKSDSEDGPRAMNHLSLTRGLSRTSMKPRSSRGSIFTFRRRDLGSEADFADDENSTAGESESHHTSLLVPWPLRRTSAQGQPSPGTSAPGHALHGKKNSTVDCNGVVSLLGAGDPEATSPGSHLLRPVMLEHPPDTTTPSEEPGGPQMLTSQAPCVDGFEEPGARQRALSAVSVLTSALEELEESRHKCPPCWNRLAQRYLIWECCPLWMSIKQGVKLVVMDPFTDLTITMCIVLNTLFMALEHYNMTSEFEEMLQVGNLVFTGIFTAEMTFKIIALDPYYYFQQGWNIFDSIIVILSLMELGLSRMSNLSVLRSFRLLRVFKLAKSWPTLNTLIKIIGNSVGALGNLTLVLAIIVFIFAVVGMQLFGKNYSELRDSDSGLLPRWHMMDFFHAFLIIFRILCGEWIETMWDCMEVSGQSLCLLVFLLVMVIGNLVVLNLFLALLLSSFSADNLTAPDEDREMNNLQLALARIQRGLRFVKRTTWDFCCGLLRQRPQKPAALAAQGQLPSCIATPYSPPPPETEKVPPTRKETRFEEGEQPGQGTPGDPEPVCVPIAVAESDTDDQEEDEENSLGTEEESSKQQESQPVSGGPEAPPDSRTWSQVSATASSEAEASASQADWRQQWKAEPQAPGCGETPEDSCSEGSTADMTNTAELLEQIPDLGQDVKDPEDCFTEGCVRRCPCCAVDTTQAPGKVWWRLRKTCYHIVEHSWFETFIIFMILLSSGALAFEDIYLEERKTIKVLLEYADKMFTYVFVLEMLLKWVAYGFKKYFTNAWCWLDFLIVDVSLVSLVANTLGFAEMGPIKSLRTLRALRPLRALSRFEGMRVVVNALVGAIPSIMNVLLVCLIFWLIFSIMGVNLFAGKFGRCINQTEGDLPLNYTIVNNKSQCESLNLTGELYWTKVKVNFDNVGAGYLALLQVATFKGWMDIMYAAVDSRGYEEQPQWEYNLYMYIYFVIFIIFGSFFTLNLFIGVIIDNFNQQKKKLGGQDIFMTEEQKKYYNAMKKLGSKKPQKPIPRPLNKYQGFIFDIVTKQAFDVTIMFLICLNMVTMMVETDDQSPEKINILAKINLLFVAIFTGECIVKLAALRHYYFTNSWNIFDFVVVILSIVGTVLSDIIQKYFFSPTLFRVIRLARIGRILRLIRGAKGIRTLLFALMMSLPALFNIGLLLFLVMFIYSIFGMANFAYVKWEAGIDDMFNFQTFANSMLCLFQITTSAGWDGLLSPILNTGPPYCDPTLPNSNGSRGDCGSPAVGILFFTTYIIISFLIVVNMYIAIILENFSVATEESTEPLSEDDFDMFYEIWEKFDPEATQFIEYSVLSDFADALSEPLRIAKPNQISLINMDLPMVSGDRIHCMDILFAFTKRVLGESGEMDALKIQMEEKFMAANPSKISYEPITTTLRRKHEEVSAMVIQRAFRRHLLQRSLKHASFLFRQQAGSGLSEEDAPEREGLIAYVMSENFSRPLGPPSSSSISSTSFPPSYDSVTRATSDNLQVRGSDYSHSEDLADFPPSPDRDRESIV

Row | MS Human THalf [2] [min] | MS Dog THalf [3] [min] | MS Rat THalf [4] [min] | Compound | inhibition at 1 µM [1] [%]
1 | > 395 | 93 | 197 | N#Cc1cnc(OCCn2nnc3ccc(-c4ccc(OC(F)(F)F)cc4)cc3c2=O)nc1 [II-51, 2-(2-(4-oxo-6-(4-(trifluoromethoxy)phenyl)benzo[d][1,2,3]triazin-3(4H)-yl)ethoxy)pyrimidine-5-carbonitrile] | 35
2 | 198 | 93 | 28 | O=C(N1CCCC1)N1CCc2ccc(-c3ccc(C(F)(F)F)cc3)cc2C1 [IX-53, pyrrolidin-1-yl(7-(4-(trifluoromethyl)phenyl)-3,4-dihydroisoquinolin-2(1H)-yl)methanone] | 33
3 | 11 | 6 | 8 | CCOC(=O)N1CCC(=O)C(n2nnc3ccc(-c4ccc(OC(F)(F)F)cc4)cc3c2=O)C1 (stereo not drawn) [II-72, ethyl 4-oxo-3-(4-oxo-6-(4-(trifluoromethoxy)phenyl)benzo[d][1,2,3]triazin-3(4H)-yl)piperidine-1-carboxylate] | 31
4 | 319 | 76 | 118 | O=c1c2cc(-c3ccc(OC(F)(F)F)cc3)ccc2nnn1CCn1ccc(C(F)(F)F)n1 [II-52, 6-(4-(trifluoromethoxy)phenyl)-3-(2-(3-(trifluoromethyl)-1H-pyrazol-1-yl)ethyl)benzo[d][1,2,3]triazin-4(3H)-one] | 32
5 | 50 | 46 | 41 | COc1ncc(-c2cnn(CCn3ncc4ccc(-c5ccc(OC(F)(F)F)cc5)cc4c3=O)c2)cn1 [III-34, 2-(2-(4-(2-methoxypyrimidin-5-yl)-1H-pyrazol-1-yl)ethyl)-7-(4-(trifluoromethoxy)phenyl)phthalazin-1 (2H)-one] | –
6 | – | – | – | O=C(N1CCc2ccc(-c3ccc(C(F)(F)F)cc3)cc2C1)N1CCC[C@H]1CO [IX-102, (S)-(2-(hydroxymethyl)pyrrolidin-1-yl)(7-(4-(trifluoromethyl)phenyl)-3,4-dihydroisoquinolin-2(1H)-yl)methanone] | 27
7 | – | – | – | O=c1c2cc(-c3ccc(OC(F)(F)F)cc3)ccc2nnn1C1CC1 [II-22, 3-cyclopropyl-6-(4-(trifluoromethoxy)phenyl)benzo[d][1,2,3]triazin-4(3H)-one] | 21
8 | – | – | – | C[C@@H]1CC[C@H](C)N1C(=O)N1CCc2ccc(-c3ccc(C(F)(F)F)cc3)cc2C1 [IX-106] | 21
9 | – | – | – | CC1CCN(C(=O)N2CCc3ccc(-c4ccc(C(F)(F)F)cc4)cc3C2)C1 (stereo not drawn) [IX-90, (3-methylpyrrolidin-1-yl)(7-(4-(trifluoromethyl)phenyl)-3,4-dihydroisoquinolin-2(1H)-yl)methanone] | 27
10 | – | – | – | O=C(N1CCc2ccc(-c3ccc(C(F)(F)F)cc3)cc2C1)N1CC(CO)C1 [IX-113, (3-(hydroxymethyl)azetidin-1-yl)(7-(4-(trifluoromethyl)phenyl)-3,4-dihydroisoquinolin-2(1H)-yl)methanone] | 17
11 | – | – | – | O=C1c2cc(-c3ccc(C(F)(F)F)cc3F)ccc2OCN1Cc1ncccn1 [VIII-18, 6-(2-fluoro-4-(trifluoromethyl)phenyl)-3-(pyrimidin-2-ylmethyl)-2H-benzo[e][1,3]oxazin-4(3H)-one] | 54
12 | – | – | – | O=c1c2cc(-c3ccc(OC(F)(F)F)cc3)ccc2cnn1CCn1cncn1 [III-26, 2-(2-(1H-1,2,4-triazol-1-yl)ethyl)-7-(4-(trifluoromethoxy)phenyl)phthalazin-1 (2H)-one] | 26
13 | – | – | – | O=C(c1cnnn1-c1ccccc1)N1CCc2ccc(-c3ccc(C(F)(F)F)cc3)cc2C1 [IX-116, (1-phenyl-1H-1,2,3-triazol-5-yl)(7-(4-(trifluoromethyl)phenyl)-3,4-dihydroisoquinolin-2(1H)-yl)methanone] | 29

From US20150329558A1, “FUSED HETEROCYCLIC COMPOUNDS AS ION CHANNEL MODULATORS” (Gilead Sciences, Inc., priority 2011, published 2015)
